{"source": "patent US5383848A", "about": "“Iontophoretic administration of drugs” (Gensia, Inc., priority 1991, dated 1995)", "key": {"[1]": {"experiment": "Redness/irritation index of topical formulations on human volunteers (Example B)", "settings": "for Redness/irritation index, Mean: 7 subjects", "quoted_text": "In these experiments data were collected from seven human volunteers concerning the effects of topical dermal clearance enhancers. […] Observations were recorded at 10, 20, and 30 minute intervals. The following redness/irritation index was used to categorize vasodilation/irritation:\n0=no redness, i.e., erythema;\nW=Wheal irritation, i.e., edemic core surrounded by an erythemic ring; and\nThe presence of vasodilation was determined by degree of redness of the skin. Wheal irritation was signified by the presence of an erythemic ring surrounding an upraised pale center. Whitening was denoted by a pale area with no upraising or redness."}, "[2]": {"tested_on": "elevated heart rate", "experiment": "In vivo dog experiments: heart rate offset after iontophoretic ESA drug with pretreatment (Example A)", "set-up": "species or system labrador dogs", "settings": "for Offset Slope Component (0-5) min: 0-5 min after heart rate begins to decline; for Offset Slope Component (5-10) min: 5-10 min after decline begins; for Offset Slope Component (10-30) min: 10-30 min after decline begins; for Change in Heart Rate (peak minus baseline) / Peak Heart Rate: Table II; for Onset Slope: baseline at onset time to peak heart rate; for Offset time: drug delivery stopped until within 20 bpm of baseline; for Offset Slope: drug shut-off to 20 bpm above baseline; for Delay: drug shut-off to start of heart rate decline; for t 1/2 of elevated heart rate decay: exponential fit; for Onset time: start of delivery to start of increase in heart rate; for Time Start Decline: time when elevated heart rate began to decline"}, "[3]": {"tested_on": "elevated heart rate", "experiment": "Additional in vivo dog experiments: dermal clearance enhancer pretreatment then arbutamine TDI (Example C)", "set-up": "species or system labrador dogs", "procedure": "Additional experiments were performed to study the effect of certain compositions on the offset time and dermal clearance in dogs.\nIn these experiments, the formulation to be tested was applied either topically or by transdermal iontophoresis (TDI) as described below.\nSix labrador dogs (20 to 30 kg) were trained to lie quietly on a table. Before each experiment, three ECG electrodes (one lead) were applied on shaved areas of the back (near the front legs) to obtain the heart rate. The outer hind leg area (either right or left) was shaved prior to each experiment, with care taken not to cut or visibly damage the skin. The area was cleaned with soap and water and the skin was then […] using an alcohol swab followed by skin preparation with 3M One-Step-Prep™ tape.\nEach vasodilator that was delivered by TDI used a 1.8 cm^2 electrode (Graphic Controls, Buffalo, N.Y.) containing the vasodilator in a gel at the concentrations listed in experimental methods section. In all experiments, an indifferent electrode containing a phosphate-buffered-saline gel was applied to the skin in conjunction with the electrode containing the vasodilator. Each vasodilator tested was applied for 10 minutes using a current of 0.6 mA/cm^2. During this time the heart rate was continuously recorded (at 5 second intervals) with the ESA Research System. The delivery electrodes were then removed, and any excess gel adhering to the skin was gently removed using a tissue.\nEach topically applied vasodilator was applied to the skin in a volume of approximately 0.25 ml. The agent was allowed to absorb into the skin, during which time the heart rate was continuously recorded for 10 minutes using the ESA Research System.\nTo test if heat alone would produce sufficient vasodilation, a 60° C. hot pack was applied to the skin 10 minutes prior to drug delivery, during which time the heat rate was continuously recorded by the ESA System. Once drug delivery electrodes were applied, the heat pack was reheated and placed on top of them for the duration of the study.\nThe purpose of this treatment was to produce an elevated heart rate response of at least 40 beats-per-minute above baseline lasting for at least 30 minutes.\n^1/ The dose (ITCA) was calculated by multiplying the applied current density (mA/cm^2) by the duration of delivery (minutes) and the drug concentration (%) and the area of the electrode (cm^2). […] The units of ITCA are mA.minutes.\nThe important variables for this analysis are:\n1) delay between time when drug administration was stopped and start of decline in heart rate;\n2) the time (minutes) to reach successive percent levels (i.e. 10, 20, 30, 40, and 50% decline) from the point of maximum change in heart rate^2.\n3) the half-life (minutes) of the heart rate decline obtained from an exponential fit of the offset slope.\nA combination of over-the-counter (OTC) and proprietary formulations were selected for comparison. […] Two dogs received each treatment at least one time.\nThe six dogs are identified in the table as BA, BB, BO, MI, PO and SA, followed by the experimental identification number. These dogs received control (no pretreatment) and five DCE pretreatment regimens."}, "[4]": {"settings": "Table VII, single dog run, listed as 1% Tolazoline"}}, "note": "Values joined by “and” are separate entries in the source; they are usually repeats but may differ in a detail not shown here. Equal values may be shown once. “Also recorded” adds a separate entry of the source."}
{"compound": "COC(=O)c1ccccc1O", "note": "[Methyl Salicylate, Methyl salicylate]", "values": [{"measurement": "Redness/irritation index, Mean", "setting": "[1]; 10 min", "result": 0}, {"measurement": "Redness/irritation index", "setting": "[1]; 10 min, subject CV", "result": 0}, {"measurement": "Redness/irritation index", "setting": "[1]; 10 min, subject four", "result": 0}, {"measurement": "Redness/irritation index", "setting": "[1]; 10 min, subject one", "result": 0}, {"measurement": "Redness/irritation index", "setting": "[1]; 10 min, subject three", "result": 0}, {"measurement": "Redness/irritation index", "setting": "[1]; 10 min, subject two", "result": 0}, {"measurement": "Redness/irritation index, Mean", "setting": "[1]; 20 min", "result": 0}, {"measurement": "Redness/irritation index", "setting": "[1]; 20 min, subject CV", "result": 0}, {"measurement": "Redness/irritation index", "setting": "[1]; 20 min, subject three", "result": 0}, {"measurement": "Redness/irritation index", "setting": "[1]; 20 min, subject two", "result": 0}, {"measurement": "Redness/irritation index, Mean", "setting": "[1]; 30 min", "result": 0}, {"measurement": "Redness/irritation index", "setting": "[1]; 30 min, subject CV", "result": 0}, {"measurement": "Redness/irritation index", "setting": "[1]; 30 min, subject three", "result": 0}, {"measurement": "Redness/irritation index", "setting": "[1]; 30 min, subject two", "result": 0}]}
{"compound": "c1ccc(CC2=NCCN2)cc1", "note": "[Tolazoline]", "values": [{"measurement": "Offset Slope Component (0-5) min", "setting": "[2]; listed as 5", "result": "-0.90 beats per minute per minute"}, {"measurement": "Offset Slope Component (0-5) min", "setting": "[2]; listed as 6", "result": "-1.40 beats per minute per minute"}, {"measurement": "Offset Slope Component (5-10) min", "setting": "[2]; listed as 5", "result": "-3.30 beats per minute per minute"}, {"measurement": "Offset Slope Component (5-10) min", "setting": "[2]; listed as 6", "result": "-3.90 beats per minute per minute"}, {"measurement": "Percent decline in heart rate, ranking", "setting": "[2]; 10-20 minute interval, FIG. 1", "result": "greatest percent decline"}, {"measurement": "Offset Slope Component (10-30) min", "setting": "[2]; listed as 5", "result": "-0.70 beats per minute per minute"}, {"measurement": "Offset Slope Component (10-30) min", "setting": "[2]; listed as 6", "result": "-0.58 beats per minute per minute"}, {"measurement": "Delay to onset of heart rate decline, ranking", "setting": "[2]; FIG. 2", "result": "shortest delay"}, {"measurement": "Heart rate decay half-life, ranking", "setting": "[2]; FIG. 2", "result": "relatively short half-lives"}, {"measurement": "Reduction in heart rate offset", "setting": "[2]; FIGS. 3 and 4", "result": "dramatic reduction in heart rate offset"}, {"measurement": "Change in Heart Rate (peak minus baseline)", "setting": "[2]; listed as 5", "result": 53, "unit": "bpm"}, {"measurement": "Peak Heart Rate", "setting": "[2]; listed as 5", "result": 119, "unit": "bpm"}, {"measurement": "Change in Heart Rate (peak minus baseline)", "setting": "[2]; listed as 6", "result": 33, "unit": "bpm"}, {"measurement": "Peak Heart Rate", "setting": "[2]; listed as 6", "result": 121, "unit": "bpm"}, {"measurement": "Total time (startup) thru offset plateau: w/in 20 bpm of baseline", "setting": "[2]; Table IV", "result": 34, "unit": "min"}, {"measurement": "Total time (startup) thru offset plateau: reached baseline", "setting": "[2]; Table IV, listed as 5", "result": 60, "unit": "min"}, {"measurement": "Total time (startup) thru offset plateau: reached baseline", "setting": "[2]; Table IV, listed as 6", "result": 30, "unit": "min"}, {"measurement": "Onset Slope", "setting": "[2]; listed as 5", "result": "4.70 beats per minute per minute"}, {"measurement": "Onset Slope", "setting": "[2]; listed as 6", "result": "3.50 beats per minute per minute"}, {"measurement": "Offset time", "setting": "[2]; listed as 5", "result": 34.00, "unit": "min"}, {"measurement": "Offset time", "setting": "[2]; listed as 6", "result": 8.00, "unit": "min"}, {"measurement": "Offset Slope", "setting": "[2]; listed as 5", "result": "-1.00 beats per minute per minute"}, {"measurement": "Offset Slope", "setting": "[2]; listed as 6", "result": "-3.20 beats per minute per minute"}, {"measurement": "Delay", "setting": "[2]; listed as 5", "result": 2.00, "unit": "min"}, {"measurement": "Delay", "setting": "[2]; listed as 6", "result": 4.00, "unit": "min"}, {"measurement": "t 1/2 of elevated heart rate decay", "setting": "[2]; Table IV, listed as 5", "result": 14.06, "unit": "min"}, {"measurement": "t 1/2 of elevated heart rate decay", "setting": "[2]; Table IV, listed as 6", "result": 6.77, "unit": "min"}, {"measurement": "Reduction in offset time", "setting": "[2]; iontophoretic pre-delivery", "result": "found effective when pre-delivered iontophoretically; also recorded: significant reduction in offset time"}, {"measurement": "Onset time", "setting": "[2]; listed as 5", "result": 10.00, "unit": "min"}, {"measurement": "Onset time", "setting": "[2]; listed as 6", "result": 7.00, "unit": "min"}, {"measurement": "Time Start Decline", "setting": "[2]; listed as 5", "result": 20.00, "unit": "min"}, {"measurement": "Time Start Decline", "setting": "[2]; listed as 6", "result": 21.00, "unit": "min"}, {"measurement": "Dermal clearance enhancement", "setting": "[2]; topical pretreatment", "result": "no measurable dermal clearance enhancement"}, {"measurement": "CHANGE IN HEART RATE, Mean", "setting": "[3]; Table VII, mean of runs", "result": 80.64, "unit": "BPM"}, {"measurement": "DELAY TIME, Mean", "setting": "[3]; Table VII, mean of runs", "result": 2.76, "unit": "min"}, {"measurement": "HALF-LIFE, Mean", "setting": "[3]; Table VII, mean of runs", "result": 16.35, "unit": "min"}, {"measurement": "TIME TO REACH 10% DECLINE IN HEART RATE, Mean", "setting": "[3]; Table VII, mean of runs", "result": 6.44, "unit": "min"}, {"measurement": "TIME TO REACH 20% DECLINE IN HEART RATE, Mean", "setting": "[3]; Table VII, mean of runs", "result": 9.83, "unit": "min"}, {"measurement": "TIME TO REACH 30% DECLINE IN HEART RATE, Mean", "setting": "[3]; Table VII, mean of runs", "result": 13.40, "unit": "min"}, {"measurement": "TIME TO REACH 40% DECLINE IN HEART RATE, Mean", "setting": "[3]; Table VII, mean of runs", "result": 18.38, "unit": "min"}, {"measurement": "TIME TO REACH 50% DECLINE IN HEART RATE, Mean", "setting": "[3]; Table VII, mean of runs", "result": 27.16, "unit": "min"}, {"measurement": "CHANGE IN HEART RATE", "setting": "[3]; [4]", "result": "53.00 BPM and 101.93 BPM and 80.67 BPM and 84.26 BPM and 93.54 BPM and 69.23 BPM and 92.75 BPM and 67.50 BPM and 97.31 BPM and 84.22 BPM and 64.17 BPM and 87.58 BPM and 72.15 BPM"}, {"measurement": "DELAY TIME", "setting": "[3]; [4]", "result": "2.00 min and 5.28 min and 0.67 min and 1.33 min and 1.77 min and 5.27 min and 1.81 min and 0.39 min and 0.00 min and 0.22 min and 4.43 min and 8.02 min and 4.65 min"}, {"measurement": "TIME TO REACH 10% DECLINE IN HEART RATE", "setting": "[3]; [4]", "result": "7.24 min and 9.14 min and 2.56 min and 9.27 min and 4.71 min and 8.58 min and 4.56 min and 4.31 min and 2.17 min and 4.63 min and 6.46 min and 9.64 min and 10.49 min"}, {"measurement": "TIME TO REACH 20% DECLINE IN HEART RATE", "setting": "[3]; [4]", "result": "8.85 min and 12.89 min and 4.46 min and 15.49 min and 7.55 min and 12.60 min and 10.28 min and 12.20 min and 4.12 min and 7.66 min and 8.49 min and 11.25 min and 11.90 min"}, {"measurement": "TIME TO REACH 30% DECLINE IN HEART RATE", "setting": "[3]; [4]", "result": "10.45 min and 16.35 min and 6.18 min and 20.96 min and 10.17 min and 19.78 min and 19.70 min and 14.89 min and 7.47 min and 11.55 min and 10.55 min and 12.87 min and 13.30 min"}, {"measurement": "TIME TO REACH 40% DECLINE IN HEART RATE", "setting": "[3]; [4]", "result": "12.29 min and 19.40 min and 7.61 min and 26.43 min and 14.58 min and 30.11 min and 28.29 min and 17.58 min and 12.20 min and 26.06 min and 12.63 min and 16.89 min and 14.83 min"}, {"measurement": "TIME TO REACH 50% DECLINE IN HEART RATE", "setting": "[3]; [4]", "result": "19.86 min and 22.45 min and 9.04 min and 31.33 min and 21.82 min and 35.27 min and 60.00 min and 20.27 min and 19.92 min and 66.00 min and 14.68 min and 20.44 min and 18.05 min"}, {"measurement": "HALF-LIFE", "setting": "[3]; heart rate decline, Table VII, single dog run, listed as 1% Tolazoline", "result": "5.75 min and 10.87 min and 20.60 min and 12.81 min and 18.60 min and 18.02 min and 11.30 min"}, {"measurement": "response in screening study", "setting": "[3]; two dogs per treatment", "result": "most pronounced response"}]}
